Measured values taken from patent EP0387830A2, “The anthracycline substances, microorganisms producing the same and a process for preparing the substances” (YAMANOUCHI PHARMACEUTICAL CO. LTD., priority 1989, dated 1990).
In brackets after ≈: the same amount, converted by molar mass.

What was measured:
[1] = test system: P-388 tumor cells; assay: Antitumor activity to P388 on animal (prolongation of life); details: for Median survival days: BDFI/SLC male mice, control 13.0; for T/C: ratio of median survival days to control; for Survival rate (after 22 days): survivors - animals in group
[2] = test system: P 388; assay: Cytotoxicity on tumor cells in vitro (trypan blue exclusion, cell growth inhibition); format: cell-based; details: tartrates dissolved in saline, 1 x 10⁵ cells/mℓ, 37 °C for 3 days, RPMI-1640 + 5 % fetus calf serum + 5 µM 2-hydroxyethyldisulfide; for IC50: Mus musculus, P388, 72 h, read-out: IC₅₀ P388
Protocol: (§1) To each 1 mℓ of L 1210* and P 388** culture medium in a concentration of 1 x 10⁵ cells/mℓ, 4 µℓ of each solution of the tartrates of the anthracycline compounds according to the present invention which was dissolved in saline in different concentrations was added respectively and incubated at 37 °C for 3 days in a CO₂ incubator. Then, numbers of surviving cells were counted by trypan blue exclusion. The cytotoxic activity was determined by calculating the cell growth inhibitory ratio of the numbers of surviving cells to numbers of cells of a control to which no compound was added in the different concentrations and by plotting them on a graph. Note : Medium used: * : RPMI-1640 + 10 % new born calf serum **: RPMI-1640 + 5 % fetus calf serum + 5 µM 2-hydroxyethyldisulfide

[3] = test system: L 1210; assay: as above; format: cell-based; details: tartrates dissolved in saline, 1 x 10⁵ cells/mℓ, 37 °C for 3 days, RPMI-1640 + 10 % new born calf serum
Protocol: as §1

[4] = test system: P388 adriamycin resistant cell; assay: as above; format: cell-based; details: Mus musculus, P388, 72 h, tartrates dissolved in saline; 37 °C for 3 days; read-out: IC₅₀ P388 adriamycin resistant cell
Protocol: as §1

[5] = Solubility in solvents (physicochemical properties)

SMILES | Median survival days ([1]; 0.50 × 5 mg/kg) [days] | T/C ([1]; 0.50 × 5 mg/kg) [%] | Survival rate (after 22 days) ([1]; 0.50 × 5 mg/kg) | Median survival days ([1]; 1.0 × 5 mg/kg) [days] | T/C ([1]; 1.0 × 5 mg/kg) [%] | Survival rate (after 22 days) ([1]; 1.0 × 5 mg/kg) | IC50 [2] [µg/mL] | IC₅₀ P388 [2] [µg/mL] | IC50 ([3]; Mus musculus, L1210, 72 h, read-out: IC₅₀ L1210) [µg/mL] | IC₅₀ L1210 [3] [µg/mL] | IC50 [4] [µg/mL] | Solubility in solvents ([5]; in hexane) | Solubility in solvents ([5]; in methanol, ethanol, acetone, ethylacetate, benzene, toluene and chloroform) | Solubility in solvents ([5]; in water)
CO[C@@]12[C@H](COC(N)=O)C3=C(C(=O)C(C)=C(N)C3=O)N1C[C@@H]1N[C@@H]12 [mitomycin C] | 22.0 | 169 | 2 - 8 | > 22.0 | > 169 | 8 - 8 |  |  |  |  |  |  |  | 
COc1cccc2c1C(=O)c1c(O)c3c(c(O)c1C2=O)C[C@@](O)(C(=O)CO)C[C@@H]3O[C@H]1C[C@H](N)[C@H](O)[C@H](C)O1 [adriamycin] |  |  |  |  |  |  | 0.03 | 0.023 | 0.087 | 0.090 |  |  |  | 
COc1cccc2c1C(=O)c1c(cc3c(c1O)C(OC1OC(C)C(OC)C(O)C1OC)CC(C)(OC(C)=O)C3OC1OC(C)C(N(C)C)C(C)(O)C1O)C2=O (stereo not drawn) [YL-01641P-C₁] |  |  |  |  |  |  | 0.18 |  |  |  | 0.33 (≈ 0.426 µM) | insoluble | soluble | difficult to be dissolved
